Source: PubChem BioAssay (NCI)
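Interpolation was linear, between the two tested concentrations surrounding the appropriate level; five concentrations were tested over 48 hours in 96-well plates. GI50: concentration for 50% inhibition of growth. TGI denotes the concentration required for complete inhibition of growth.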

Assays:
Test in all cases: DTP human tumour cell line panel, 48 h
SF-295 CNS = system: SF-295 CNS
HCT-15 colon = system: HCT-15 colon
BT-549 breast = system: BT-549 breast
SK-MEL-28 melanoma = system: SK-MEL-28 melanoma
HCT-116 colon = system: HCT-116 colon
KM12 colon = system: KM12 colon
PC-3 prostate = system: PC-3 prostate
SW-620 colon = system: SW-620 colon
SNB-19 CNS = system: SNB-19 CNS
SF-268 CNS = system: SF-268 CNS
HOP-92 NSCLC = system: HOP-92 NSCLC
786-0 renal = system: 786-0 renal
HOP-62 NSCLC = system: HOP-62 NSCLC
SNB-75 CNS = system: SNB-75 CNS
COLO 205 colon = system: COLO 205 colon
HCC-2998 colon = system: HCC-2998 colon
OVCAR-5 ovarian = system: OVCAR-5 ovarian
MALME-3M melanoma = system: MALME-3M melanoma
OVCAR-4 ovarian = system: OVCAR-4 ovarian
NCI-H522 lung = system: NCI-H522 lung
IGROV1 ovarian = system: IGROV1 ovarian
MCF7 breast = system: MCF7 breast
CAKI-1 renal = system: CAKI-1 renal
OVCAR-8 ovarian = system: OVCAR-8 ovarian
TK-10 renal = system: TK-10 renal
ACHN renal = system: ACHN renal
LOX IMVI melanoma = system: LOX IMVI melanoma
T-47D breast = system: T-47D breast
HT29 colon = system: HT29 colon
NCI-H460 lung = system: NCI-H460 lung
M14 melanoma = system: M14 melanoma
SN12C renal = system: SN12C renal
SF-539 CNS = system: SF-539 CNS
UO-31 renal = system: UO-31 renal
NCI-H226 lung = system: NCI-H226 lung
UACC-257 melanoma = system: UACC-257 melanoma
SK-MEL-2 melanoma = system: SK-MEL-2 melanoma
RXF 393 renal = system: RXF 393 renal
RPMI-8226 leukemia = system: RPMI-8226 leukemia
K-562 leukemia = system: K-562 leukemia
SR leukemia = system: SR leukemia
NCI-H23 lung = system: NCI-H23 lung
A549 NSCLC = system: A549 NSCLC
DU-145 prostate = system: DU-145 prostate
EKVX NSCLC = system: EKVX NSCLC
UACC-62 melanoma = system: UACC-62 melanoma
MDA-MB-231 breast = system: MDA-MB-231 breast
SK-OV-3 ovarian = system: SK-OV-3 ovarian
MOLT-4 leukemia = system: MOLT-4 leukemia
CCRF-CEM leukemia = system: CCRF-CEM leukemia
SK-MEL-5 melanoma = system: SK-MEL-5 melanoma
HL-60(TB) leukemia = system: HL-60(TB) leukemia
HS 578T breast = system: HS 578T breast
U251 CNS = system: U251 CNS
NCI/ADR-RES ovarian = system: NCI/ADR-RES ovarian
MDA-MB-435 = system: MDA-MB-435

## CS(=O)(=O)Nc1cc(-c2ccc3ncc(C#N)c(NCc4cccc(F)c4)c3c2)cnc1Cl
SF-295 CNS
  GI50: 237 nM
  TGI: 2430 nM
HCT-15 colon
  GI50: 289 nM
  TGI: 11800 nM
BT-549 breast
  GI50: 73.6 nM
  TGI: 678 nM
SK-MEL-28 melanoma
  GI50: 191 nM
  TGI: 4690 nM
HCT-116 colon
  GI50: 277 nM
  TGI: 1480 nM
KM12 colon
  GI50: 347 nM
  TGI: 2610 nM
PC-3 prostate
  GI50: 284 nM
  TGI: 5710 nM
SW-620 colon
  GI50: 344 nM
  TGI: 10300 nM
SNB-19 CNS
  GI50: 292 nM
  TGI: 11000 nM
SF-268 CNS
  GI50: 196 nM
  TGI: 3610 nM
HOP-92 NSCLC
  GI50: 36.3 nM
  TGI: 459 nM
786-0 renal
  GI50: 310 nM
  TGI: 5520 nM
HOP-62 NSCLC
  GI50: 220 nM
  TGI: 4150 nM
SNB-75 CNS
  GI50: 34.3 nM
  TGI: 448 nM
COLO 205 colon
  GI50: 357 nM
  TGI: 1650 nM
HCC-2998 colon
  GI50: 367 nM
  TGI: 6560 nM
OVCAR-5 ovarian
  GI50: 473 nM
  TGI: 12000 nM
MALME-3M melanoma
  GI50: 79.3 nM
  TGI: 559 nM
OVCAR-4 ovarian
  GI50: 309 nM
  TGI: > 27700 nM
NCI-H522 lung
  GI50: 369 nM
  TGI: 7860 nM
IGROV1 ovarian
  GI50: 122 nM
  TGI: 972 nM
MCF7 breast
  GI50: 118 nM
  TGI: 9850 nM
CAKI-1 renal
  GI50: 163 nM
  TGI: 2040 nM
OVCAR-8 ovarian
  GI50: 366 nM
  TGI: 16400 nM
TK-10 renal
  GI50: 141 nM
  TGI: 1220 nM
ACHN renal
  GI50: 570 nM
  TGI: > 45100 nM
LOX IMVI melanoma
  GI50: 200 nM
  TGI: 1110 nM
T-47D breast
  GI50: 63.5 nM
  TGI: 1460 nM
HT29 colon
  GI50: 502 nM
  TGI: 4640 nM
NCI-H460 lung
  GI50: 509 nM
  TGI: 11400 nM
M14 melanoma
  GI50: 254 nM
  TGI: 5860 nM
SN12C renal
  GI50: 278 nM
  TGI: 32400 nM
SF-539 CNS
  GI50: 195 nM
  TGI: 1850 nM
UO-31 renal
  GI50: 162 nM
  TGI: > 21500 nM
NCI-H226 lung
  GI50: 363 nM
  TGI: 22800 nM
UACC-257 melanoma
  GI50: 335 nM
  TGI: 7140 nM
SK-MEL-2 melanoma
  GI50: 122 nM
  TGI: 374 nM
RXF 393 renal
  GI50: 110 nM
  TGI: 784 nM
RPMI-8226 leukemia
  GI50: 287 nM
  TGI: 2160 nM
K-562 leukemia
  GI50: 274 nM
  TGI: > 59300 nM
SR leukemia
  GI50: 112 nM
  TGI: 2240 nM
NCI-H23 lung
  GI50: 348 nM
  TGI: 13600 nM
A549 NSCLC
  GI50: 695 nM
  TGI: 6800 nM
DU-145 prostate
  GI50: 336 nM
  TGI: 11800 nM
EKVX NSCLC
  GI50: 381 nM
  TGI: 5130 nM
UACC-62 melanoma
  GI50: 121 nM
  TGI: 1190 nM
MDA-MB-231 breast
  GI50: 350 nM
  TGI: 4960 nM
SK-OV-3 ovarian
  GI50: 263 nM
  TGI: 1760 nM
MOLT-4 leukemia
  GI50: 218 nM
  TGI: 1980 nM
CCRF-CEM leukemia
  GI50: 164 nM
  TGI: 20400 nM
SK-MEL-5 melanoma
  GI50: 179 nM
  TGI: 403 nM
HL-60(TB) leukemia
  GI50: 330 nM
  TGI: 4450 nM
HS 578T breast
  GI50: 51.3 nM
  TGI: 451 nM
U251 CNS
  GI50: 197 nM
  TGI: 2680 nM
NCI/ADR-RES ovarian
  GI50: 1990 nM
  TGI: 40300 nM
MDA-MB-435
  GI50: 258 nM
  TGI: 9500 nM
